Laboratory results from patent US8334286B2, “Substituted pyrrolo[1,2-A] pyrazines, compositions containing these, processes of making these, and uses thereof” (Neurotune AG, priority 2008, dated 2012).

What was measured:
[1] = system: paclitaxel-induced hyperalgesia; assay: Paclitaxel-induced hyperalgesia in the rat (paw-pressure test); type: in vivo; conditions: PCT-treated rats, 3 mg/kg i.v., mean ± S.E.M.
Procedure: In all methods, paw mechanical sensitivity was determined using either the paw pressure test or the incapacitance test. The paw pressure test utilizes a Randall & Selitto apparatus, exerting a force that increases at constant rate (32 g/s). The stimulus at which rats withdrawn the paw was evaluated before and at different times after treatment. Results represent the mean of mechanical thresholds expressed as grams. To avoid any possible damage to the animal paw the maximum applied force was fixed at 240 g. Peripheral neuropathy is induced by repeated administration of vincristine, paclitaxel or oxaliplatin to adult male Sprague-Dawley rats (150-200 g, supplier Harlan). The following protocols were used respectively: • Vincristine: the drug was injected by intravenous route at the dose of 150 μg/kg. The treatment was performed every 2 days, for 5 times, until a cumulative dose of 750 μg/kg was reached. Paw pressure test was performed 4 days after the last injection (Marchand F. et al. 2003, Brain Res. 980:117-120). • Paclitaxel: paclitaxel (PCT) neuropathy was induced by intraperitoneal administration of 0.5 mg/kg once a day, on days 1, 3, 5 and 8. Cumulative paclitaxel dose was 2 mg/kg. The pharmacological test was performed 14-18 days after the last paclitaxel injection (Polomano R. C. et al. 2001, Pain 94:293-304). • Oxaliplatin: 2.4 mg/kg were injected by intraperitoneal route for 5 consecutive days followed by 2 days suspension (one cicle). A total of 3 cycles was performed, reaching a cumulative dose of 36 mg/kg (Cavaletti G. 2001, Eur. J. Cancer 37:2457-2463). The test was performed 48 h after the last oxaliplatin injection. 2. Osteoarthritic Pain

MIA-induced hyperalgesia [2] = assay: MIA-induced hyperalgesia in the rat (paw-pressure test), osteoarthritic pain; type: in vivo; conditions: MIA-treated rats, mean ± S.E.M.
Procedure: In all methods, paw mechanical sensitivity was determined using either the paw pressure test or the incapacitance test. The paw pressure test utilizes a Randall & Selitto apparatus, exerting a force that increases at constant rate (32 g/s). The stimulus at which rats withdrawn the paw was evaluated before and at different times after treatment. Results represent the mean of mechanical thresholds expressed as grams. To avoid any possible damage to the animal paw the maximum applied force was fixed at 240 g. Osteoarthritis was induced by a single administration of 2 mg (in a volume of 25 μl) of monosodium iodoacetate (MIA) into the left knee joint of anaesthetized rats (male adult Sprague Dawley rats, 150-200 g, supplier Harlan) (Fernihough J. 2004, Pain 112:83-93). This treatment induces the progressive degeneration of the joint and the development of hyperalgesia, mimicking at the histological and behavioral levels what observed in humans. Pharmacological test was performed 7 days after treatment.

MIA-induced hyperalgesia [3] = assay: MIA-induced hyperalgesia in the rat (incapacitance test), osteoarthritic pain; type: in vivo; conditions: MIA-treated rats, grams of the right paw, mean ± S.E.M.
Procedure: In all methods, paw mechanical sensitivity was determined using either the paw pressure test or the incapacitance test. […] Osteoarthritis was induced by a single administration of 2 mg (in a volume of 25 μl) of monosodium iodoacetate (MIA) into the left knee joint of anaesthetized rats (male adult Sprague Dawley rats, 150-200 g, supplier Harlan) (Fernihough J. 2004, Pain 112:83-93). This treatment induces the progressive degeneration of the joint and the development of hyperalgesia, mimicking at the histological and behavioral levels what observed in humans. Pharmacological test was performed 7 days after treatment.

[4] = 3 mg/kg i.v., 15 min after treatment
[5] = 3 mg/kg i.v., 30 min after treatment
[6] = 3 mg/kg i.v., 45 min after treatment
[7] = before treatment (basal), group 3 mg/kg i.v.

In the case of `O=C1CC[C@@H]2CN(S(=O)(=O)c3ccccc3C(F)(F)F)CCN12` [Example 8, (R)-(+)-2-(2-(trifluoromethyl)phenylsulfonyl) hexahydropyrrolo [1,2-a]pyrazin-6(7H)-one], the “Mechanical threshold (g), After Treatment 15 min” value ([1]; 15 min after treatment) is reported as 42.2 ± 3.0 g, the “Mechanical threshold (g), After Treatment 30 min” value ([1]; 30 min after treatment) is reported as 39.3 ± 3.2 g and the “Mechanical threshold (g), After Treatment 45 min” value ([1]; 45 min after treatment) is reported as 37.5 ± 3.2 g. For the same compound, the “Mechanical threshold (g), After Treatment 15 min” value (MIA-induced hyperalgesia [2]; [4]) was 59.4 ± 1.6 g, the “Mechanical threshold (g), After Treatment 30 min” value (MIA-induced hyperalgesia [2]; [5]) was 63.8 ± 2.6 g and the “Mechanical threshold (g), After Treatment 45 min” value (MIA-induced hyperalgesia [2]; [6]) was 50.2 ± 3.7 g. For the same compound, the “Mechanical threshold (g), Before Treatment basal” value (MIA-induced hyperalgesia [2]; [7]) was 22.6 ± 2.0 g, the “Weight borne on right hind paw” value (MIA-induced hyperalgesia [3]; [4]) was 119.0 ± 7.5 g and the “Weight borne on right hind paw” value (MIA-induced hyperalgesia [3]; [5]) was 113.5 ± 6.6 g. For the same compound, the “Weight borne on right hind paw” value (MIA-induced hyperalgesia [3]; [6]) was 72.9 ± 6.3 g, the “Weight borne on right hind paw” value (MIA-induced hyperalgesia [3]; [7]) was 40.4 ± 8.2 g and the melting point was 157 to 158 °C.
